We go through 50 molecules from PMC11995724, “Antibiotic target discovery by integrated phenotypic and activity-based profiling of electrophilic fragments” (Cell chemical biology, 2025).

The data set in a line: in vitro. The conditions noted are these: human, hek293t cells.
In general, viability refers to a read-out of living cells in per cent, often relative to untreated cells. Turning to `NC(=O)c1ccc(NC(=O)CCl)cc1` [4-P04, 4-(2-chloroacetamido)benzamide], the viability at 48 h, 25 µM was found to be 0.712%.
The value for `CCCC(=O)Nc1ccc(C(=O)C(C)Cl)cc1` (centres unmarked) [10-O06, N-[4-(2-chloropropanoyl)phenyl]butanamide] was 85.1%; that for `C=CC(=O)N1CCC(C2CCOC2)C1` (centres unmarked) [1-H06, 1-[3-(oxolan-3-yl)pyrrolidin-1-yl]prop-2-en-1-one] was 70.3%.
Consider `N#CC(=Cc1ccc(F)c(F)c1)C(=O)NC1CC1` [9-M06, 2-cyano-N-cyclopropyl-3-(3,4-difluorophenyl)prop-2-enamide], for which the viability at 48 h, 25 µM turned out to be 109%.
For `Cc1ccc(N(CCC#N)C(=O)CCl)cc1` [4-M15, 2-chloro-N-(2-cyanoethyl)-N-(4-methylphenyl)acetamide], the viability at 48 h, 25 µM was 1.24%.
The value for `Cc1cc(CNC(=O)CCl)[nH]n1` [7-L22, 2-chloro-N-[(3-methyl-1H-pyrazol-5-yl)methyl]acetamide] was 90.6%.
Consider `N#CC(=Cc1ccc(Cl)cc1Cl)C(N)=O` [8-H17, 2-cyano-3-(2,4-dichlorophenyl)prop-2-enamide], for which the viability at 48 h, 25 µM worked out at 93.6%.
As to `C=CC(=O)N1CCC(c2nc3ccccc3o2)CC1` [1-N18, 1-[4-(1,3-benzoxazol-2-yl)piperidin-1-yl]prop-2-en-1-one], the viability at 48 h, 25 µM was 80.1%.
The value for `CC(Cl)C(=O)N1CCCC(c2nc(-c3cccc(F)c3)no2)C1` (centres unmarked) [6-N21, 2-chloro-1-{3-[3-(3-fluorophenyl)-1,2,4-oxadiazol-5-yl]piperidin-1-yl}propan-1-one] was 90.2%; that for `CCOc1ccccc1NC(=O)C(C#N)=Cc1c(C)[nH]c2ccccc12` [9-A06, 2-cyano-N-(2-ethoxyphenyl)-3-(2-methyl-1H-indol-3-yl)prop-2-enamide] was 100%.
For the molecule `C=CC(=O)NCC(CC)n1nc(C)cc1C` (centres unmarked) [1-K21, N-[2-(3,5-dimethyl-1H-pyrazol-1-yl)butyl]prop-2-enamide], the viability at 48 h, 25 µM came out at 108%.
Consider `O=C(CCl)Nc1ccc(Oc2cccc(Cl)c2)cc1` [6-C18, 2-chloro-N-[4-(3-chlorophenoxy)phenyl]acetamide], for which the viability at 48 h, 25 µM turned out to be 0.765%.
The value for `CCS(=O)(=O)N1CCc2cc(C(=O)CCl)ccc21` [10-E18, 2-chloro-1-[1-(ethanesulfonyl)-2,3-dihydro-1H-indol-5-yl]ethan-1-one] was 1.16%.
`C=CC(=O)N(Cc1c(C)cccc1OC)C1CCCCNC1=O` (centres unmarked) [1-F09, N-[(2-methoxy-6-methylphenyl)methyl]-N-(2-oxoazepan-3-yl)prop-2-enamide]: the viability at 48 h, 25 µM stood at 85.8%.
In the case of `CCN(C(=O)CCl)C(c1ccccc1)c1ccc(F)cc1` (centres unmarked) [6-J11, 2-chloro-N-ethyl-N-[(4-fluorophenyl)(phenyl)methyl]acetamide], the viability at 48 h, 25 µM is 0.263%.
The value for `C=CC(=O)NC1CCc2nc(CC)nn2C1` (centres unmarked) [1-G22, N-{2-ethyl-5H,6H,7H,8H-[1,2,4]triazolo[1,5-a]pyridin-6-yl}prop-2-enamide] was 147%; that for `CC(=O)c1c(C)[nH]c(C(=O)C(C)Cl)c1C` (centres unmarked) [10-P22, 1-(4-acetyl-3,5-dimethyl-1H-pyrrol-2-yl)-2-chloropropan-1-one] was 103%.
Consider `C=CC(=O)N1CCN(Cc2ncon2)CC1` [3-I16, 1-{4-[(1,2,4-oxadiazol-3-yl)methyl]piperazin-1-yl}prop-2-en-1-one], for which the viability at 48 h, 25 µM was determined as 106%.
`CC(Cl)C(=O)NCC1(C2CC2)CCC1` (centres unmarked) [7-A06, 2-chloro-N-[(1-cyclopropylcyclobutyl)methyl]propanamide]: the viability at 48 h, 25 µM is 81.1%.
Turning to `N#CC(=Cc1ccccc1OC(F)F)C(=O)NC1CCCCC1` [8-H18, 2-cyano-N-cyclohexyl-3-[2-(difluoromethoxy)phenyl]prop-2-enamide], the viability at 48 h, 25 µM came to 20.8%.
As for `N#CC(=Cc1ccc([N+](=O)[O-])o1)C(=O)NCc1ccco1` [8-I17, 2-cyano-N-[(furan-2-yl)methyl]-3-(5-nitrofuran-2-yl)prop-2-enamide], the viability at 48 h, 25 µM stood at 1.08%.
Regarding `C=CC(=O)N1CCC(C(=O)N(CC)Cc2occc2C)CC1` [2-L08, N-ethyl-N-[(3-methylfuran-2-yl)methyl]-1-(prop-2-enoyl)piperidine-4-carboxamide], the viability at 48 h, 25 µM was 88.8%.
With `N#CC(=Cc1c(Cl)cccc1Cl)C(=O)Nc1nccs1` [8-P09, 2-cyano-3-(2,6-dichlorophenyl)-N-(1,3-thiazol-2-yl)prop-2-enamide], the viability at 48 h, 25 µM came to 109%.
The value for `O=C(CCl)NC1CCCN(c2cc(N3CCOCC3)ncn2)C1` (centres unmarked) [4-N21, 2-chloro-N-{1-[6-(morpholin-4-yl)pyrimidin-4-yl]piperidin-3-yl}acetamide] was 4.92%.
`C=CC(=O)NCc1nnc(C2CCOCC2)[nH]1` [2-M22, N-{[5-(oxan-4-yl)-4H-1,2,4-triazol-3-yl]methyl}prop-2-enamide]: the viability at 48 h, 25 µM amounted to 93.3%.
The value for `C=CC(=O)N1CCCC1(COC)C(N)=O` (centres unmarked) [3-K07, 2-(methoxymethyl)-1-(prop-2-enoyl)pyrrolidine-2-carboxamide] was 143%; that for `COc1cc(C=C(C#N)C(=O)NC2CCCCC2)cc(Cl)c1O` [8-H21, 3-(3-chloro-4-hydroxy-5-methoxyphenyl)-2-cyano-N-cyclohexylprop-2-enamide] was 92.7%.
In the case of `O=C(CCl)N1C[C@@H]2C[C@H]1CN2c1ccccc1` [5-E22, 2-chloro-1-[(1S,4S)-5-phenyl-2,5-diazabicyclo[2.2.1]heptan-2-yl]ethan-1-one], the viability at 48 h, 25 µM was 0.453%.
The value for `C=CC(=O)NCc1ccc2oc(=O)[nH]c2c1` [3-D14, N-[(2-oxo-2,3-dihydro-1,3-benzoxazol-5-yl)methyl]prop-2-enamide] was 103%; that for `N#Cc1ccccc1N1C(=O)C=CC1=O` [10-B13, 2-(2,5-dioxo-2,5-dihydro-1H-pyrrol-1-yl)benzonitrile] was 65.2%.
The value for `C=CC(=O)Nc1ccc(C(=O)N2CCC(C)(C)S(=O)(=O)CC2)cc1` [3-E04, N-[4-(7,7-dimethyl-1,1-dioxo-1lambda6,4-thiazepane-4-carbonyl)phenyl]prop-2-enamide] was 78.6%.
The value for `CC(C)c1ccc(CN(C(=O)CCl)C2CC2)cc1` [6-K18, 2-chloro-N-cyclopropyl-N-{[4-(propan-2-yl)phenyl]methyl}acetamide] was 1.65%.
Turning to `C=CC(=O)N1CCC(C(=O)N[C@]2(C(=O)OC)CC[C@@H](C)CC2)CC1` [3-E17, methyl (1r,4r)-4-methyl-1-[1-(prop-2-enoyl)piperidine-4-amido]cyclohexane-1-carboxylate], the viability at 48 h, 25 µM stood at 57%.
The value for `C=CC(=O)N1CCCC(C(=O)O)C1` (centres unmarked) [1-G12, 1-(prop-2-enoyl)piperidine-3-carboxylic acid] was 60.4%.
As to `CC(Cl)C(=O)Nc1ccc(F)c(Cl)c1` (centres unmarked) [4-A04, 2-chloro-N-(3-chloro-4-fluorophenyl)propanamide], the viability at 48 h, 25 µM was found to be 56.5%.
The value for `N#CC(=Cc1ccccc1)C(=O)Nc1ccccc1-c1ccccc1` [8-A15, N-{[1,1'-biphenyl]-2-yl}-2-cyano-3-phenylprop-2-enamide] was 90.1%; that for `CC(Cl)C(=O)NCc1cnn2ccccc12` (centres unmarked) [7-M13, 2-chloro-N-({pyrazolo[1,5-a]pyridin-3-yl}methyl)propanamide] was 104%.
The value for `CC(Cl)C(=O)NC1CCCN(c2cnn(C)c2)C1` (centres unmarked) [7-K19, 2-chloro-N-[1-(1-methyl-1H-pyrazol-4-yl)piperidin-3-yl]propanamide] was 75.7%; that for `C=CC(=O)NCc1ccc(C(=O)N2CCC[C@H]2C(=O)NC)cc1` [3-L06, (2S)-N-methyl-1-{4-[(prop-2-enamido)methyl]benzoyl}pyrrolidine-2-carboxamide] was 80.6%.
The value for `Cc1nc2cc(=O)[nH]n2c(C)c1CNC(=O)C(C)Cl` (centres unmarked) [7-B07, 2-chloro-N-({5,7-dimethyl-2-oxo-1H,2H-pyrazolo[1,5-a]pyrimidin-6-yl}methyl)propanamide] was 96.1%; that for `CC(Cl)C(=O)NCc1nn(-c2ccccc2)c2c1CCC2` (centres unmarked) [7-P05, 2-chloro-N-({1-phenyl-1H,4H,5H,6H-cyclopenta[c]pyrazol-3-yl}methyl)propanamide] was 116%; that for `CC(=O)Nc1ccc(NC(=O)C(C#N)=Cc2cc(F)ccc2F)cc1` [8-C12, 2-cyano-3-(2,5-difluorophenyl)-N-(4-acetamidophenyl)prop-2-enamide] was 57.6%.
As to `O=C(CCl)N1CCN(C2CCCN(C3CCOCC3)C2=O)CC1` (centres unmarked) [5-E18, 3-[4-(2-chloroacetyl)piperazin-1-yl]-1-(oxan-4-yl)piperidin-2-one], the viability at 48 h, 25 µM is 9.07%.
`Cn1cc(C=C(C#N)C(=O)N2CCCC2)c(-c2cc3ccccc3o2)n1` [9-D18, 3-[3-(1-benzofuran-2-yl)-1-methyl-1H-pyrazol-4-yl]-2-(pyrrolidine-1-carbonyl)prop-2-enenitrile]: the viability at 48 h, 25 µM was determined as 106%.
The value for `CC(C)NC(=O)C(C#N)=Cc1cc(F)ccc1F` [8-C08, 2-cyano-3-(2,5-difluorophenyl)-N-(propan-2-yl)prop-2-enamide] was 138%; that for `CC(C)NC(=O)C(C#N)=Cc1ccc(-c2ccccc2F)o1` [8-K18, 2-cyano-3-[5-(2-fluorophenyl)furan-2-yl]-N-(propan-2-yl)prop-2-enamide] was 16%; that for `O=C(CCl)Nc1cccc(NC(=O)c2ccccc2)c1` [6-A03, N-[3-(2-chloroacetamido)phenyl]benzamide] was -0.0459%.
`C=CC(=O)NC(C)c1ccc(Oc2ccccc2)c(F)c1` (centres unmarked) [2-H13, N-[1-(3-fluoro-4-phenoxyphenyl)ethyl]prop-2-enamide]: the viability at 48 h, 25 µM is 68.8%.
The value for `CC(Cl)C(=O)Nc1ccc(F)c(F)c1F` (centres unmarked) [4-O08, 2-chloro-N-(2,3,4-trifluorophenyl)propanamide] was 88.8%; that for `COCCNC(=O)C(C#N)=Cc1ccc(O)cc1` [9-D22, 2-cyano-3-(4-hydroxyphenyl)-N-(2-methoxyethyl)prop-2-enamide] was 110%.
